Paper PMC7450630 (ACS Omega, 2020)

Target: PD-L1 (Homo sapiens, UniProt Q9NZQ7)
Test: HTRF PD-1/PD-L1 binding assay

PD-L1, sequence (Q15116 25-288): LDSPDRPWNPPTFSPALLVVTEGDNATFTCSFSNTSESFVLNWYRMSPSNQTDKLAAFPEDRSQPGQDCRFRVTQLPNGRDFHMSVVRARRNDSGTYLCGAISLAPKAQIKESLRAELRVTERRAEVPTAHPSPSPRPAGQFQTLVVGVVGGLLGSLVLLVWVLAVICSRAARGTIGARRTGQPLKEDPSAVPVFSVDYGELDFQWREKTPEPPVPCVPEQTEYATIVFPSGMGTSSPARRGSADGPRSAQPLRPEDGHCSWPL
PD-L1, sequence (Q9NZQ7 19-290): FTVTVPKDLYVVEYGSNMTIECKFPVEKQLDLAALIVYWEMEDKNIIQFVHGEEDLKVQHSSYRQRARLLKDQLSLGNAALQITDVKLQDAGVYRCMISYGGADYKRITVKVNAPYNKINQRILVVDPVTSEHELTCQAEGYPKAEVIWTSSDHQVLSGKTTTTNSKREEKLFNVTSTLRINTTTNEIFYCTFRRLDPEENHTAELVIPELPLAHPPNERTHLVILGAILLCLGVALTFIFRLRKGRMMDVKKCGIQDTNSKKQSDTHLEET

| SMILES | IC50 [µM] |
| --- | --- |
| Cc1c(COc2ccc(CN3CCN(C)CC3)c(OCc3cn(-c4cccc(C#N)c4)nn3)c2)cccc1-c1ccccc1 [8a, 3-(4-((5-((2-Methylbiphenyl-3-yl)methoxy)-2-((4-methylpiperazin-1yl)methyl)phenoxy)methyl)-1H-1,2,3-triazol-1-yl)benzonitrile] | 14.1 |
| Cc1c(COc2ccc(CN3CCNCC3)c(OCc3cn(-c4cccc(C#N)c4)nn3)c2)cccc1-c1ccccc1 [compound 7, 3-(4-((5-((2-Methylbiphenyl-3-yl)methoxy)-2-(piperazin-1-ylmethyl)phenoxy)methyl)-1H-1,2,3-triazol-1-yl)benzonitrile] | 8.52 |
